The record followed here is patent US11130769B2 (Prelude Therapeutics Incorporated, priority 2018, dated 2021).

For orientation: IC50 means the concentration that gives 50% inhibition.

The subject of one test is H929 cells. As to the kind of experiment: Cell viability assay (H929 10 FBS). The format is cell-based. Particulars: Homo sapiens, NCI-H929, 24 hours, read-out: H929_10FBS IC50. The gist of the method: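 H929 cells, 4000/well, in RPMI 1640 with 10% FBS, sodium pyruvate, HEPES and glucose were exposed to compound 24 h at 37 °C. Viability read as luminescence after 30-60 min at RT with CellTiter-Glo or ATPlite 1 Step.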

Another test concerns the target MCL-1 (Homo sapiens (Human), UniProt Q07820). As to the kind of experiment: Cell free Mcl-1:Bim affinity assay (fluorescence polarization competition). The format is binding. Particulars: 15 nM MCL-1, 5 nM FITC-Bim, 1 hour at room temperature; class symbols; read-out: BIM_Ki. Summed up:
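Compounds competed with FITC-labelled Bim peptide (5 nM) for MCL-1 (15 nM) in HEPES/NaCl buffer with 1% DMSO, 1 h at room temperature. Fluorescence polarization (535 nm emission) gave % inhibition versus DMSO and positive controls; IC50 from 10-point curves, converted to Ki by the Nikolovska-Coleska equation.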

MCL-1, sequence (Q07820 whole entry): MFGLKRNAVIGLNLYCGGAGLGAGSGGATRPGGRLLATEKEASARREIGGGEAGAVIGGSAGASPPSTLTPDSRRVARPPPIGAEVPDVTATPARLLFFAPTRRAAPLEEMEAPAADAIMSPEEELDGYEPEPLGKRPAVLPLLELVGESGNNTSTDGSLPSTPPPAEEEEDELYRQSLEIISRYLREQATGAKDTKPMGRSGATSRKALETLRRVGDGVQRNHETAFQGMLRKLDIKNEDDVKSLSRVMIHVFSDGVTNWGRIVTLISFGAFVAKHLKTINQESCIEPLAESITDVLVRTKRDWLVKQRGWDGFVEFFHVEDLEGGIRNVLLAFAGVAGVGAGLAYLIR

As to `CC1(C)OC/C=C/[C@H](OCCN2CC[C@H](F)C2)[C@@H]2CC[C@H]2CN2C[C@@]3(CCCc4cc(Cl)ccc43)COc3ccc(cc32)S(=O)(=O)NC1=O` [Example 265, (3R,6R,7S,8E,22S)-6′-Chloro-7-[2-[(3S)-3-fluoropyrrolidin-1-yl]ethoxy]-12,12-dimethyl-15,15-dioxo-spiro[11,20-dioxa-15-thia-1,14-diazatetracyclo[14.7.2.03,6.019,24]pentacosa-8,16,18,24-tetraene-22,1′-tetralin]-13-one], the IC50 in the test with H929 cells is < 500 nM. The Ki on MCL-1 is 1 to 100 nM.
The matching figures for `CO[C@@H]1CCN(C(=O)O[C@H]2/C=C/COC(C)(C)C(=O)NS(=O)(=O)c3ccc4c(c3)N(C[C@@H]3CC[C@H]32)C[C@@]2(CCOc3cc(Cl)ccc32)CO4)C1` [Example 266, [(3R,6R,7S,8E,22S)-7′-Chloro-12,12-dimethyl-13,155-trioxo-spiro[11,20-dioxa-15-thia-1,14-diazatetracyclo[14.7.2.03,6.019,24]pentacosa-8,16,18,24-tetraene-22,4′-chromane]-7-yl] (3R)-3-methoxypyrrolidine-1-carboxylate]: < 500 nM and < 1 nM.
Regarding `CON(C)CCO[C@H]1/C=C/COC(C)(C)C(=O)NS(=O)(=O)c2ccc3c(c2)N(C[C@@H]2CC[C@H]21)C[C@@]1(CCCc2cc(Cl)ccc21)CO3` [Example 267, (3R,6R,7S,8E,22S)-6′-Chloro-7-[2-[methoxy(methyl)amino]ethoxy]-12,12-dimethyl-15,15-dioxo-spiro[11,20-dioxa-15-thia-1,14-diazatetracyclo[14.7.2.03,6.019,24]pentacosa-8,16,18,24-tetraene-22,1′-tetralin]-13-one], the IC50 with H929 cells is < 1000 nM. The Ki on MCL-1 was in the range of 1 to 100 nM.
For the compound `CCN(CC)CCO[C@H]1/C=C/COC(C)(C)C(=O)NS(=O)(=O)c2ccc3c(c2)N(C[C@@H]2CC[C@H]21)C[C@@]1(CCCc2cc(Cl)ccc21)CO3` [Example 268, (3R,6R,7S,8E,22S)-6′-Chloro-7-[2-(diethylamino)ethoxy]-12,12-dimethyl-15,15-dioxo-spiro[11,20-dioxa-15-thia-1,14-diazatetracyclo[14.7.2.03,6.019,24]pentacosa-8,16,18,24-tetraene-22,1′-tetralin]-13-one], the IC50 in the test on H929 cells is < 500 nM. Moreover, at MCL-1, the Ki was < 1 nM.
For `CC1(C)OC/C=C/[C@H](OCCN2C[C@@H](F)[C@@H](F)C2)[C@@H]2CC[C@H]2CN2C[C@@]3(CCCc4cc(Cl)ccc43)COc3ccc(cc32)S(=O)(=O)NC1=O` [Example 269, (3R,6R,7S,8E,22S)-6′-Chloro-7-[2-[(3R,4S)-3,4-difluoropyrrolidin-1-yl]ethoxy]-12,12-dimethyl-15,15-dioxo-spiro[11,20-dioxa-15-thia-1,14-diazatetracyclo[14.7.2.03,6.019,24]pentacosa-8,16,18,24-tetraene-22,1′-tetralin]-13-one], in that order: < 500 nM and < 1 nM.
Consider `CC1(C)OC/C=C/[C@H](OCCN2CCOCC2)[C@@H]2CC[C@H]2CN2C[C@@]3(CCCc4cc(Cl)ccc43)COc3ccc(cc32)S(=O)(=O)NC1=O` [Example 270, (3R,6R,7S,8E,22S)-6′-Chloro-12,12-dimethyl-7-(2-morpholinoethoxy)-15,15-dioxo-spiro[11,20-dioxa-15-thia-1,14-diazatetracyclo[14.7.2.03,6.019,24]pentacosa-8,16,18,24-tetraene-22,1′-tetralin]-13-one], for which the IC50 in the test with H929 cells is < 500 nM. In addition, at MCL-1, the Ki was < 1 nM.
`CC1(C)OC/C=C/[C@@H](OCCN2CCOCC2)[C@@H]2CC[C@H]2CN2C[C@@]3(CCCc4cc(Cl)ccc43)COc3ccc(cc32)S(=O)(=O)NC1=O` [Example 271, (3R,6R,7R,8E,22S)-6′-Chloro-12,12-dimethyl-7-(2-morpholinoethoxy)-15,15-dioxo-spiro[11,20-dioxa-15-thia-1,14-diazatetracyclo[14.7.2.03,6.019,24]pentacosa-8,16,18,24-tetraene-22,1′-tetralin]-13-one]: the IC50 in the test on H929 cells was < 500 nM. In addition, the Ki on MCL-1 was < 1 nM.
Consider `CC1(C)OC/C=C/[C@@H](OCCN2CC(F)(F)C2)[C@@H]2CC[C@H]2CN2C[C@@]3(CCCc4cc(Cl)ccc43)COc3ccc(cc32)S(=O)(=O)NC1=O` [Example 272, (3R,6R,7R,8E,22S)-6′-Chloro-7-[2-(3,3-difluoroazetidin-1-yl)ethoxy]-12,12-dimethyl-15,15-dioxo-spiro[11,20-dioxa-15-thia-1,14-diazatetracyclo[14.7.2.03,6.019,24]pentacosa-8,16,18,24-tetraene-22,1′-tetralin]-13-one], for which the IC50 in the test with H929 cells is < 500 nM. In addition, on MCL-1, the Ki is < 1 nM.
The matching figures for `CN(C)CCO[C@@H]1/C=C/COC(C)(C)C(=O)NS(=O)(=O)c2ccc3c(c2)N(C[C@@H]2CC[C@H]21)C[C@@]1(CCCc2cc(Cl)ccc21)CO3` [Example 273, (3R,6R,7R,8E,22S)-6′-Chloro-7-[2-(dimethylamino)ethoxy]-12,12-dimethyl-15,15-dioxo-spiro[11,20-dioxa-15-thia-1,14-diazatetracyclo[14.7.2.03,6.019,24]pentacosa-8,16,18,24-tetraene-22,1′-tetralin]-13-one]: < 1000 nM and < 1 nM.
`CC1(C)OC/C=C/[C@@H](OCCN2CCCC2)[C@@H]2CC[C@H]2CN2C[C@@]3(CCCc4cc(Cl)ccc43)COc3ccc(cc32)S(=O)(=O)NC1=O` [Example 274, (3R,6R,7R,8E,22S)-6′-Chloro-12,12-dimethyl-15,15-dioxo-7-(2-pyrrolidin-1-ylethoxy)spiro[11,20-dioxa-15-thia-1,14-diazatetracyclo[14.7.2.03,6.019,24]pentacosa-8,16,18,24-tetraene-22,1′-tetralin]-13-one]: the IC50 in the test on H929 cells is < 1000 nM. Moreover, the Ki on MCL-1 is < 1 nM.
With `CN1C/C=C/[C@H](OCCN2CC(F)C2)[C@@H]2CC[C@H]2CN2C[C@@]3(CCCc4cc(Cl)ccc43)COc3ccc(cc32)S(=O)(=O)NC(=O)C1(C)C` [Example 275, (3R,6R,7S,8E,22S)-6′-Chloro-7-[2-(3-fluoroazetidin-1-yl)ethoxy]-11,12,12-trimethyl-15,15-dioxo-spiro[20-oxa-15-thia-1,11,14-triazatetracyclo[14.7.2.03,6.019,24]pentacosa-8,16,18,24-tetraene-22,1′-tetralin]-13-one], in the test with H929 cells, the IC50 was < 500 nM. For the same compound, on MCL-1, the Ki lay within 1 to 100 nM.
For `CN1C/C=C/[C@H](OCCN2CC[C@@H](F)C2)[C@@H]2CC[C@H]2CN2C[C@@]3(CCCc4cc(Cl)ccc43)COc3ccc(cc32)S(=O)(=O)NC(=O)C1(C)C` [Example 276, (3R,6R,7S,8E,22S)-6′-Chloro-7-[2-[(3R)-3-fluoropyrrolidin-1-yl]ethoxy]-11,12,12-trimethyl-15,15-dioxo-spiro[20-oxa-15-thia-1,11,14-triazatetracyclo[14.7.2.03,6.019,24]pentacosa-8,16,18,24-tetraene-22,1′-tetralin]-13-one], in that order: < 1000 nM and < 1 nM.
